Measurements taken from ChEMBL document CHEMBL3046582, “Antifeedant activity of sesquiterpenes from celastraceae” (1997).
Active and inactive are the calls of the source. The rule behind the calls is not given here.

Tests used:
Spodoptera littoralis [1] = experiment: Antifeedant activity against newly ecdysed fifth-instar larval stage of Spodoptera littoralis in compound-pretreated lettuce leaf disks assessed as consumed area of leaf disks at 0.1 ug/cm'2 measured at 30 min intervals for 4-5 hr post-drug exposure by choice test; type: functional
Spodoptera littoralis [2] = experiment: Antifeedant activity against newly ecdysed fifth-instar larval stage of Spodoptera littoralis in compound-pretreated lettuce leaf disks assessed as consumed area of leaf disks at 1 ug/cm'2 measured at 30 min intervals for 4-5 hr post-drug exposure by choice test; type: functional
Spodoptera littoralis [3] = experiment: Antifeedant activity against newly ecdysed fifth-instar larval stage of Spodoptera littoralis in compound-pretreated lettuce leaf disks assessed as consumed area of leaf disks at 10 ug/cm'2 measured at 30 min intervals for 4-5 hr post-drug exposure by choice test; type: functional
Spodoptera littoralis [4] = experiment: Antifeedant activity against newly ecdysed fifth-instar larval stage of Spodoptera littoralis in compound-pretreated lettuce leaf disks assessed as consumed area of leaf disks at 0.01 ug/cm'2 measured at 30 min intervals for 4-5 hr post-drug exposure by choice test; type: functional
Spodoptera littoralis [5] = experiment: Antifeedant activity against newly ecdysed fifth-instar larval stage of Spodoptera littoralis in compound-pretreated lettuce leaf disks assessed as consumed area of leaf disks measured at 30 min intervals for 4-5 hr post-drug exposure by choice test; type: functional, organism-based
Spodoptera littoralis [6] = experiment: Insecticidal activity against newly ecdysed fifth-instar larval stage of Spodoptera littoralis in compound-pretreated lettuce leaf disks assessed as mortality at 3 hr post-drug exposure; type: functional

Structure (SMILES): CC(=O)O[C@H]1C[C@](C)(O)[C@]23OC(C)(C)[C@H]([C@@H](C(C)=O)[C@@H](OC(=O)c4ccccc4)[C@]2(OC(C)=O)[C@H]1OC(C)=O)[C@H]3OC(C)=O
- FR50 (Spodoptera littoralis [1]): 0.4
- FR50 (Spodoptera littoralis [2]): 0.24
- FR50 (Spodoptera littoralis [3]): 0.05

Structure (SMILES): CC(=O)O[C@H]1CC[C@](C)(O)[C@]23OC(C)(C)[C@H](C[C@H](OC(=O)c4ccccc4)[C@]12OC(C)=O)[C@H]3OC(C)=O
- FR50 (Spodoptera littoralis [1]): 0.4
- FR50 (Spodoptera littoralis [2]): 0.12
- FR50 (Spodoptera littoralis [3]): 0.11

Structure (SMILES): CC(=O)O[C@H]1C[C@](C)(O)[C@]23OC(C)(C)[C@H]([C@@H](OC(C)=O)[C@@H](OC(=O)c4ccccc4)[C@]2(OC(C)=O)C1)[C@H]3OC(C)=O
- FR50 (Spodoptera littoralis [1]): 1.1
- FR50 (Spodoptera littoralis [2]): 0.18
- FR50 (Spodoptera littoralis [3]): 0.1

Structure (SMILES): CC(=O)O[C@H]1[C@@H]2[C@@H](OC(=O)c3cccnc3)[C@@]3(OC2(C)C)[C@@](C)([C@@H](OC(=O)c2ccccc2)CC[C@]3(C)O)[C@@H]1OC(C)=O
- FR50 (Spodoptera littoralis [1]): 0.45
- FR50 (Spodoptera littoralis [2]): 0.15
- FR50 (Spodoptera littoralis [3]): 0.04

Structure (SMILES): CC(=O)O[C@H]1C[C@](C)(O)[C@]23OC(C)(C)[C@H]([C@@H](C(C)=O)[C@@H](OC(=O)c4ccccc4)[C@]2(OC(C)=O)[C@H]1OC(=O)c1ccccc1)[C@H]3O
- FR50 (Spodoptera littoralis [1]): 1.02
- FR50 (Spodoptera littoralis [2]): 0.19
- FR50 (Spodoptera littoralis [3]): 0.1

Structure (SMILES): COCCCC[C@@H]1[C@@H]2[C@@H](OC(C)=O)[C@@]3(OC2(C)C)[C@@](OC(C)=O)([C@@H](OC(C)=O)CC[C@]3(C)O)[C@@H]1OC(=O)c1ccccc1
- FR50 (Spodoptera littoralis [1]): 0.23
- FR50 (Spodoptera littoralis [2]): 0
- FR50 (Spodoptera littoralis [3]): 0
- FR50 (Spodoptera littoralis [4]): 0.69

Structure (SMILES): CC(=O)OC1CCOC1 (single isomer, unassigned; (+))
- Activity (Spodoptera littoralis [5]): inactive
- LD100 (Spodoptera littoralis [6]): inactive

Structure (SMILES): O=C(OCC1CCCO1)c1ccccc1 (stereo not given)
- Activity (Spodoptera littoralis [5]): inactive
- LD100 (Spodoptera littoralis [6]): inactive

Structure (SMILES): CCC(C)C(=O)OC (stereo in doubt; 54)
- Activity (Spodoptera littoralis [5]): inactive
- LD100 (Spodoptera littoralis [6]): inactive

Structure (SMILES): OCC1CCCO1 (stereo not given)
- Activity (Spodoptera littoralis [5]): inactive
- LD100 (Spodoptera littoralis [6]): inactive

Structure (SMILES): CC(=O)O[C@@H]1[C@@H]2[C@@H](OC(C)=O)[C@@]3(OC2(C)C)[C@@](OC(C)=O)([C@@H](OC(C)=O)CC[C@]3(C)O)[C@@H]1OC(=O)c1ccccc1
- FR50 (Spodoptera littoralis [1]): 0.64
- FR50 (Spodoptera littoralis [2]): 0.2
- FR50 (Spodoptera littoralis [3]): 0.03

Structure (SMILES): O=C(OCC1CCCO1)c1cc([N+](=O)[O-])cc([N+](=O)[O-])c1 (stereo not given)
- Activity (Spodoptera littoralis [5]): inactive
- LD100 (Spodoptera littoralis [6]): inactive

Structure (SMILES): COCCCC[C@@H]1[C@@H]2[C@@H](OC(C)=O)[C@@]3(OC2(C)C)[C@](OC(C)=O)([C@@H]1OC(=O)c1ccccc1)[C@@H](O)CC[C@]3(C)O
- FR50 (Spodoptera littoralis [1]): 0.57
- FR50 (Spodoptera littoralis [2]): 0.23
- FR50 (Spodoptera littoralis [3]): 0.08
